# Laboratory results: publication PMC3145970, “Specific CLK Inhibitors from a Novel Chemotype for Regulation of Alternative Splicing” (Chemistry & Biology, 2011)
# Read-outs that look alike come from different tables or passages of the source.
# Legend:
# Test in all cases: Thermal stability shift assay
# Format in all cases: binding
# [1] = target: AAK1 (Homo sapiens, UniProt Q2M2I8); conditions: read-out: Tm shift AAK1
# Method in brief: (§1)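 Protein at 2 μM was heated with 10 μM inhibitor in 10 mM HEPES pH 7.5, 500 mM NaCl containing SyproOrange (1:1000 dilution); thermal denaturation was followed by fluorescence in a real-time PCR instrument.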
# [2] = target: CHK2 (Homo sapiens, UniProt O96017); conditions: read-out: Tm shift CHK2
# CHK2, sequence (O96017 whole entry): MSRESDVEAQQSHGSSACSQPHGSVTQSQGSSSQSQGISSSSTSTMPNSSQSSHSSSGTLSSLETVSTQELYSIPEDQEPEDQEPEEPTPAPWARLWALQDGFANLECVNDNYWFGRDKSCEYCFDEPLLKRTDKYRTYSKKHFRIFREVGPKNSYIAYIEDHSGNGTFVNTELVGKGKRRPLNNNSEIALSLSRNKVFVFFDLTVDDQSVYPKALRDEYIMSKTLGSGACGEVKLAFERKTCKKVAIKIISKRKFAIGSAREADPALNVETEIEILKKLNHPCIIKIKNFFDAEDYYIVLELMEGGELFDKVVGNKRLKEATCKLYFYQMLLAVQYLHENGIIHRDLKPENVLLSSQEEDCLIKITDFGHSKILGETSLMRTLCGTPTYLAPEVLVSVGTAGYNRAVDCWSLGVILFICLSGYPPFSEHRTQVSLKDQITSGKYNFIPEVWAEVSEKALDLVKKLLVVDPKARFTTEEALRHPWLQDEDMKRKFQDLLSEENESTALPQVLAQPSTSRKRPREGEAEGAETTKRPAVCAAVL
# Method in brief: as §1
# [3] = target: CaMK1d (Homo sapiens, UniProt Q8IU85); conditions: read-out: Tm shift CaMK1d
# CaMK1d, sequence (Q8IU85 whole entry): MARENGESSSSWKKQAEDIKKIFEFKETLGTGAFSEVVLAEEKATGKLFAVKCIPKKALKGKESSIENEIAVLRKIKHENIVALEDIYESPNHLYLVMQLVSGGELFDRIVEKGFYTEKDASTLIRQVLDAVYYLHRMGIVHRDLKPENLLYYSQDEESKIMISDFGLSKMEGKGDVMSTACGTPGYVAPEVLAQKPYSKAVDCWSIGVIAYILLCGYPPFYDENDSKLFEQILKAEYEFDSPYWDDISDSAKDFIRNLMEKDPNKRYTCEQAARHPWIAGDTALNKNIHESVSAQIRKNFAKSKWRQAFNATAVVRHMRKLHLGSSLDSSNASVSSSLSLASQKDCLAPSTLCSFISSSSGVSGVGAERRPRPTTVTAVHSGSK
# Method in brief: as §1
# [4] = target: T1, NEK7 (Homo sapiens, UniProt Q8TDX7); conditions: read-out: Tm shift NEK7
# T1 construct: purchased in-house (SGC Oxford thermal shift panel)
# T1 sequence (Q8TDX7 whole entry): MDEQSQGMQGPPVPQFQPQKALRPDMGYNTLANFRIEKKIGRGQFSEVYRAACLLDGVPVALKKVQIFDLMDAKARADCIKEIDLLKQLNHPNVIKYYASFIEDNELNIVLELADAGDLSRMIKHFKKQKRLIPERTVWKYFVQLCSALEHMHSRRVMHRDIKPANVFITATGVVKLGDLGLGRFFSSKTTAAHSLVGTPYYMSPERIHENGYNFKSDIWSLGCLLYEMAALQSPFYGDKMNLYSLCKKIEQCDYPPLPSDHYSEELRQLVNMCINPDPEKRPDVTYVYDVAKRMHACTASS
# Method in brief: as §1
# [5] = target: PKACa (Homo sapiens, UniProt P17612); conditions: read-out: Tm shift PKACa
# Method in brief: as §1
# [6] = target: T2, PKD3 (Homo sapiens, UniProt O94806); conditions: read-out: Tm shift PKD3
# T2 sequence (O94806 1-890): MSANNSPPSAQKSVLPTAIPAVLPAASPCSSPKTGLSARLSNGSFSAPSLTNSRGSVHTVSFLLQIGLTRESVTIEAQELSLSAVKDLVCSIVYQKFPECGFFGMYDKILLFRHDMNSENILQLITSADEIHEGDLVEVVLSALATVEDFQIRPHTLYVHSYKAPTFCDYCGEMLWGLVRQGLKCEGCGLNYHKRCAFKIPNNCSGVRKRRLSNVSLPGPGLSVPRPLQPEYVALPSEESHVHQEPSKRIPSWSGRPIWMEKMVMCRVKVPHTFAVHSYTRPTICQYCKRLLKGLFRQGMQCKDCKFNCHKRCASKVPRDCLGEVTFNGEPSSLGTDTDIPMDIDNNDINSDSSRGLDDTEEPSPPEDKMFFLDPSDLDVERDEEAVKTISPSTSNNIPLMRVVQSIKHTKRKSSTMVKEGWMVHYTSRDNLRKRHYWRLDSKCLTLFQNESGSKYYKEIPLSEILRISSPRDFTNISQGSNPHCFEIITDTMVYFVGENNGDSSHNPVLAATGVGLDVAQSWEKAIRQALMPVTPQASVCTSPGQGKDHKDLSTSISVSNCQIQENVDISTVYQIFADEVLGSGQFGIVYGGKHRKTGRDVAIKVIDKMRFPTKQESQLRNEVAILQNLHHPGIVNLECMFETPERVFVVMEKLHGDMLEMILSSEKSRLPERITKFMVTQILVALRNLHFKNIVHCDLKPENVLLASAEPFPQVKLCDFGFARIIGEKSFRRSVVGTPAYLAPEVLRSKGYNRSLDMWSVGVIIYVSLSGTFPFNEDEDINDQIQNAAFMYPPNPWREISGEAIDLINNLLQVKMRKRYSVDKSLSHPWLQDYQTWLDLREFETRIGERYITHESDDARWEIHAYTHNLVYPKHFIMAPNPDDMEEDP
# Method in brief: as §1
# [7] = target: SRPK2 (Homo sapiens, UniProt P78362); conditions: read-out: Tm shift SRPK2
# SRPK2, sequence (P78362 whole entry): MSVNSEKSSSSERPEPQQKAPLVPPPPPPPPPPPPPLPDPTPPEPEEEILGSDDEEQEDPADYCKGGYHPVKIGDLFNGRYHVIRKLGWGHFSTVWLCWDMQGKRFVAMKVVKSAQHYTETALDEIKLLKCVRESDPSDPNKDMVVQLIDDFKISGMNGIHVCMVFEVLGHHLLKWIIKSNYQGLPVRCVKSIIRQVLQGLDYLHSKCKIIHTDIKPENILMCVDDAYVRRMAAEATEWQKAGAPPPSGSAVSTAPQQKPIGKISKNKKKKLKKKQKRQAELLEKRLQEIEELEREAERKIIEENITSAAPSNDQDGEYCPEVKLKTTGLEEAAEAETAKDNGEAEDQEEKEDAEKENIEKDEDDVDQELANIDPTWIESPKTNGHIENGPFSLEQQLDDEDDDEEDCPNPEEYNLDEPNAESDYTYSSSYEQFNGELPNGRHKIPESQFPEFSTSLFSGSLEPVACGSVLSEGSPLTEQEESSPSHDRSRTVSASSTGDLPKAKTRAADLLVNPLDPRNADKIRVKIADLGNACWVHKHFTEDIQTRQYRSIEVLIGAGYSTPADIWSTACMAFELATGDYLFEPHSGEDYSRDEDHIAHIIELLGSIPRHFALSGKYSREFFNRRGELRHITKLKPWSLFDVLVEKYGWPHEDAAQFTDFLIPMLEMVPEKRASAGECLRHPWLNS
# Method in brief: as §1
# [8] = target: T3, VRK1 (Homo sapiens, UniProt Q99986); conditions: read-out: Tm shift VRK1
# T3 sequence (Q99986 1-396): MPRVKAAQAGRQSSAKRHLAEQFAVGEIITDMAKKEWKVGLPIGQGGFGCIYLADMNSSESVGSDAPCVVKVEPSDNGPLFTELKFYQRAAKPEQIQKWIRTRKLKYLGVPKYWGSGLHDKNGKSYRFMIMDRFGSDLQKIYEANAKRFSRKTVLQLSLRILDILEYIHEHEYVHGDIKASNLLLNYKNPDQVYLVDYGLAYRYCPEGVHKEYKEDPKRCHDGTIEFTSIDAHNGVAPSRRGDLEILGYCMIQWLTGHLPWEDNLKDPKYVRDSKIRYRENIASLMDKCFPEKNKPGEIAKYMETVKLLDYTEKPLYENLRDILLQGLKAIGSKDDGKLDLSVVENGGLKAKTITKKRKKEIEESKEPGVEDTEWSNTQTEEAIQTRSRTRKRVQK
# Method in brief: as §1
# [9] = target: T4, eEF2K (Homo sapiens, UniProt O00418); conditions: read-out: Tm shift eEF2K
# T4 construct: purchased in-house (SGC Oxford thermal shift panel)
# T4 sequence (O00418 1-725): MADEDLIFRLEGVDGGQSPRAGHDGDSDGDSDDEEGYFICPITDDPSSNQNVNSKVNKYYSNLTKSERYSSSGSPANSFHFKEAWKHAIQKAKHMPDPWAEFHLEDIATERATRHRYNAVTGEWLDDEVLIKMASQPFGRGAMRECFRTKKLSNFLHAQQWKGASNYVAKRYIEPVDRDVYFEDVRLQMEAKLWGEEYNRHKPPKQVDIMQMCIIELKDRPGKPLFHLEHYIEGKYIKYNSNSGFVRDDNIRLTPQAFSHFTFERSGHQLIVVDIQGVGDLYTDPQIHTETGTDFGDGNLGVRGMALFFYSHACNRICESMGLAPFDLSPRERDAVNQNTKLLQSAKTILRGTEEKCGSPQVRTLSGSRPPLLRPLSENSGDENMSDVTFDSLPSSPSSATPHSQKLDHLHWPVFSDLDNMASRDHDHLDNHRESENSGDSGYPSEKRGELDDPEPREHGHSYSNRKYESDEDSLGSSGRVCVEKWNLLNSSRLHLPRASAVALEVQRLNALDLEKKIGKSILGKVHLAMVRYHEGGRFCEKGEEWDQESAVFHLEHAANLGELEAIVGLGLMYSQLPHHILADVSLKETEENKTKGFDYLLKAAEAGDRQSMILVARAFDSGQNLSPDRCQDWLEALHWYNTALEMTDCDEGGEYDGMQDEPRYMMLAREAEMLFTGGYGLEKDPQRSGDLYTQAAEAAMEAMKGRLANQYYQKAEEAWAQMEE
# Method in brief: as §1
# [10] = target: smMLCK (Homo sapiens, UniProt Q15746); conditions: read-out: Tm shift smMLCK
# smMLCK, sequence (Q15746 whole entry): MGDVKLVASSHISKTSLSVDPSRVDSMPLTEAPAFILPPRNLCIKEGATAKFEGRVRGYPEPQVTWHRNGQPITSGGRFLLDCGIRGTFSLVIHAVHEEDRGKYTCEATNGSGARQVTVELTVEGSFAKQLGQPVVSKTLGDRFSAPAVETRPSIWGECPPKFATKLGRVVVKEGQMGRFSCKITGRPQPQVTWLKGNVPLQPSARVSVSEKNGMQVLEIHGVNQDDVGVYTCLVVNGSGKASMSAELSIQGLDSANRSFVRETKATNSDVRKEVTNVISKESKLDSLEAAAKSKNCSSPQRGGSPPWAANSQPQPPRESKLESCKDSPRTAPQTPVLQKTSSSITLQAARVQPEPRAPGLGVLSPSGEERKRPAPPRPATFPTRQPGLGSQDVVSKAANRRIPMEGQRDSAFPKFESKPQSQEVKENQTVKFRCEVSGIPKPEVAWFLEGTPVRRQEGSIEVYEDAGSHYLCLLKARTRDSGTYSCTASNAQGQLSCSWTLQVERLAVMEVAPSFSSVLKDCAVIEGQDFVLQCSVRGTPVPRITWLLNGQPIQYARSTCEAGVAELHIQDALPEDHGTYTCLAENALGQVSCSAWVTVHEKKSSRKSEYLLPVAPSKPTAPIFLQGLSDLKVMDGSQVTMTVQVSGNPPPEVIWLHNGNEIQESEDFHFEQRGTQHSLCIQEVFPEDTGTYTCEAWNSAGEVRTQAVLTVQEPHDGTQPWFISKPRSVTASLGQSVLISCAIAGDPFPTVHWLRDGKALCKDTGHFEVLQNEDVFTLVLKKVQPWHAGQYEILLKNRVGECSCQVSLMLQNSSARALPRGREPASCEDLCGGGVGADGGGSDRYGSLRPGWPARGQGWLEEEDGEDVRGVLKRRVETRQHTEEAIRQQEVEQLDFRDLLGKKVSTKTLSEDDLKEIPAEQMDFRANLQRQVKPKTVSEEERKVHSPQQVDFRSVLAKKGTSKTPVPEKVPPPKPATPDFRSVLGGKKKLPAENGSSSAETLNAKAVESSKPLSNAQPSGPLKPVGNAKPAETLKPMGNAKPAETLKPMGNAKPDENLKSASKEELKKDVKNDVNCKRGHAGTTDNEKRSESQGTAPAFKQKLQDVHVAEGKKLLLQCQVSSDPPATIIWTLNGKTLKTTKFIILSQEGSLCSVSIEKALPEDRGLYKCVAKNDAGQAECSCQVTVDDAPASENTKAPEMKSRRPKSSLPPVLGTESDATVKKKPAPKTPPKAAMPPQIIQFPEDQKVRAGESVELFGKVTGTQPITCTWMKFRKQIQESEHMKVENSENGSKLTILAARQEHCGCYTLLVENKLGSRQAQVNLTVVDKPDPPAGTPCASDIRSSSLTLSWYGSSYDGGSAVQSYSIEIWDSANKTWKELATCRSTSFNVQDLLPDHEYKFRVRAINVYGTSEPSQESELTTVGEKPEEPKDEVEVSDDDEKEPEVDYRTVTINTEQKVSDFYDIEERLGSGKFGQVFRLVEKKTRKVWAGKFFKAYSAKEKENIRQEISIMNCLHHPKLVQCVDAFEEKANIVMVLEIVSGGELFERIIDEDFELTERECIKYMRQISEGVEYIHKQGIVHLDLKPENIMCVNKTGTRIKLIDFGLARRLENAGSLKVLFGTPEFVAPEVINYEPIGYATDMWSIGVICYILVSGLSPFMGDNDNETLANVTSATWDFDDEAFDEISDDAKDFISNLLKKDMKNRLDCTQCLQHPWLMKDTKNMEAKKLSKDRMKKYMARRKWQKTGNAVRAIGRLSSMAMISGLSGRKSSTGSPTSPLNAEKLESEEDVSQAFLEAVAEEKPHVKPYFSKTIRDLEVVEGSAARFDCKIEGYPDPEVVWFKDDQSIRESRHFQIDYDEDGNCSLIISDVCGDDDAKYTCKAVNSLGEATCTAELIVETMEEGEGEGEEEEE
# Method in brief: as §1
# AAK1, sequence (Q2M2I8 whole entry): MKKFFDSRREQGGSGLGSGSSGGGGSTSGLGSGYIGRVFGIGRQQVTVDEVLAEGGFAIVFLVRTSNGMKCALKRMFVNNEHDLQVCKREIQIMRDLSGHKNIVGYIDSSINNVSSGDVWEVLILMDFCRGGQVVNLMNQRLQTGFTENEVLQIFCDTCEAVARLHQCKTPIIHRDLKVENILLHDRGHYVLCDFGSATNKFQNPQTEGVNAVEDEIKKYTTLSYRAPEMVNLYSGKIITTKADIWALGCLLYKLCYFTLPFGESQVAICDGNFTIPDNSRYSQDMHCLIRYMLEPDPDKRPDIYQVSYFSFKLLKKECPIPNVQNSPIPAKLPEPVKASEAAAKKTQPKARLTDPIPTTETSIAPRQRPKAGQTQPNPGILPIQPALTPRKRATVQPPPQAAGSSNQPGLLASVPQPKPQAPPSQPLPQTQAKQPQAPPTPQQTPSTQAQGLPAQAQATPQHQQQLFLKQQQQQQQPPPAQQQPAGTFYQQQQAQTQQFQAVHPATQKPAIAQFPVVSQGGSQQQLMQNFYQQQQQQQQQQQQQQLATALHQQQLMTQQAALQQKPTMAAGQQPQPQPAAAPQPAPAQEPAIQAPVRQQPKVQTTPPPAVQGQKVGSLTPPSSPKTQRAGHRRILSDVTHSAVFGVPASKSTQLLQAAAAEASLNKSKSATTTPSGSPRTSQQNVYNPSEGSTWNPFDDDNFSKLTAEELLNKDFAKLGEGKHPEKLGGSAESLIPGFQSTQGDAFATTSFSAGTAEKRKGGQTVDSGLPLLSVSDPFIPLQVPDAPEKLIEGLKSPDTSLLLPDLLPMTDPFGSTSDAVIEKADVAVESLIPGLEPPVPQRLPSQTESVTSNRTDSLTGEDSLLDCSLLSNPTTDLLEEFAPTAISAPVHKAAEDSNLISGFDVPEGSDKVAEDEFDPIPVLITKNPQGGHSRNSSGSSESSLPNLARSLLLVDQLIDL
Compound,ΔTm at 10 µM [1],ΔTm at 10 µM [2],ΔTm at 10 µM [3],ΔTm at 10 µM [4],ΔTm at 10 µM [5],ΔTm at 10 µM [6],ΔTm at 10 µM [7],ΔTm at 10 µM [8],ΔTm at 10 µM [9],ΔTm at 10 µM [10],ΔTm at 10 µM ([1]; inhibitor 10 μM),ΔTm at 10 µM ([2]; inhibitor 10 μM),ΔTm at 10 µM ([3]; inhibitor 10 μM),ΔTm at 10 µM ([4]; inhibitor 10 μM),ΔTm at 10 µM ([5]; inhibitor 10 μM),ΔTm at 10 µM ([6]; inhibitor 10 μM),ΔTm at 10 µM ([7]; inhibitor 10 μM),ΔTm at 10 µM ([8]; inhibitor 10 μM),ΔTm at 10 µM ([9]; inhibitor 10 μM),ΔTm at 10 µM ([10]; inhibitor 10 μM)
"CCOC(=O)c1c(/C(C#N)=C\N)c2ccc(Cl)c(Cl)c2n1C [KH-CB19, (E)-Ethyl 3-(2-Amino-1-Cyanovinyl)-6,7-Dichloro-1-Methyl-1H-Indole-2-Carboxylate]",1.3 °C,0.4 °C,0.1 °C,0 °C,0 °C,0.1 °C,0.1 °C,0 °C,-0.1 °C,0.5 °C,,,,,,,,,,
"CCOC(=O)c1c(C(C#N)=CN)c2ccc(Cl)c(Cl)c2n1C (mixture of isomers) [KH-CB20, (E/Z)-Ethyl 3-(2-Amino-1-Cyanovinyl)-6,7-Dichloro-1-Methyl-1H-Indole-2-Carboxylate]",1.3 °C,1 °C,-0.6 °C,0.1 °C,0.3 °C,0.3 °C,0.5 °C,0.2 °C,-0.1 °C,0.6 °C,,,,,,,,,,
"NC1=NC(=O)/C(=C2\CCNC(=O)c3[nH]c(Br)cc32)N1 [Hymenialdisine, hymenialdisine, reference compound]",,,,,,,,,,,2.7 °C,5.7 °C,0 °C,0.6 °C,0.8 °C,2 °C,-0.2 °C,2 °C,-0.1 °C,1.9 °C
"CCOC(=O)c1c(C(C#N)=CN(C)C)c2ccc(Cl)c(Cl)c2n1C (mixture of isomers) [compound 2, (E/Z)-Ethyl 6,7-Dichloro-3-[1-Cyano-2-(Dimethylamino)Vinyl]-1-Methyl-1H-Indole-2-Carboxylate]",,,,,,,,,,,0.3 °C,0.3 °C,-0.4 °C,-0.7 °C,0.2 °C,0 °C,-0.1 °C,0.2 °C,-0.4 °C,1.1 °C
"Cn1c2c(Cl)c(Cl)ccc2c2c(C#N)c[nH]c(=O)c21 [compound 3, 7,8-Dichloro-9-Methyl-1-Oxo-2,9-Dihydro-1H-Pyrido[3,4-b]Indole-4-Carbonitrile]",,,,,,,,,,,1.4 °C,0.5 °C,-0.3 °C,0.6 °C,0.4 °C,0.4 °C,0.2 °C,-0.4 °C,0.3 °C,0.5 °C
